Reference: PubChem BioAssay AID1963449 (Molecular Pharmacology Branch, DTP, NCI, 2024)

Test system: 596521-263-R-J1-PDC complex spheroid growth
Assay: Anticancer human tumor 596521-263-R-J1-PDC patient-derived soft tissue sarcoma cell line growth inhibition [Asc]
Conditions: for IC50: curve of first compound; for viability, T/C: stronger effect = lower value
Outline: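 Stromal components (HUVEC and hMSC) are co-assembled with the cancer cells into multicellular spheroids. Drugs are then added singly or paired, at concentrations falling by half-log increments from a clinically achievable maximum, capped at 10 microM without known Cmax.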
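Note: spheroids exposed to compounds for 7 days.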

COc1c(OCCCN2CCOCC2)ccc2c3n(c(=NC(=O)c4cnc(N)nc4)nc12)CCN3 + CCN1C(C(=O)NC23CCC(C(=O)O)(CC2)CC3)C(c2cccc(Cl)c2F)C2(C(=O)Nc3cc(Cl)ccc32)C12CCCCC2
IC50 (second compound 0.00949 µM): 0.199 µM | IC50 (second compound 0.03 µM): 0.182 µM | IC50 (second compound 0.0949 µM): 0.159 µM | IC50 (second compound 0.3 µM): 0.212 µM | IC50 (second compound 0.949 µM): 0.105 µM | IC50 (second compound 3 µM): 0.125 µM | viability, T/C (second compound 0.00949 µM, first compound 0.00316 µM): 93.1% | viability, T/C (second compound 0.00949 µM, first compound 0.01 µM): 90.5% | viability, T/C (second compound 0.00949 µM, first compound 0.0316 µM): 70.4% | viability, T/C (second compound 0.00949 µM, first compound 0.1 µM): 67.6% | viability, T/C (second compound 0.00949 µM, first compound 0.316 µM): 39.1% | viability, T/C (second compound 0.00949 µM, first compound 1 µM): 24% | viability, T/C (second compound 0.03 µM, first compound 0.00316 µM): 97.5% | viability, T/C (second compound 0.03 µM, first compound 0.01 µM): 96.7% | viability, T/C (second compound 0.03 µM, first compound 0.0316 µM): 80% | viability, T/C (second compound 0.03 µM, first compound 0.1 µM): 59.4% | viability, T/C (second compound 0.03 µM, first compound 0.316 µM): 42% | viability, T/C (second compound 0.03 µM, first compound 1 µM): 34.9% | viability, T/C (second compound 0.0949 µM, first compound 0.00316 µM): 87.7% | viability, T/C (second compound 0.0949 µM, first compound 0.01 µM): 96.3% | viability, T/C (second compound 0.0949 µM, first compound 0.0316 µM): 78.3% | viability, T/C (second compound 0.0949 µM, first compound 0.1 µM): 59.1% | viability, T/C (second compound 0.0949 µM, first compound 0.316 µM): 37.5% | viability, T/C (second compound 0.0949 µM, first compound 1 µM): 31.4% | viability, T/C (second compound 0.3 µM, first compound 0.00316 µM): 99.9% | viability, T/C (second compound 0.3 µM, first compound 0.01 µM): 83.8% | viability, T/C (second compound 0.3 µM, first compound 0.0316 µM): 79.9% | viability, T/C (second compound 0.3 µM, first compound 0.1 µM): 64.8% | viability, T/C (second compound 0.3 µM, first compound 0.316 µM): 39.9% | viability, T/C (second compound 0.3 µM, first compound 1 µM): 29.9% | viability, T/C (second compound 0.949 µM, first compound 0.00316 µM): 103% | viability, T/C (second compound 0.949 µM, first compound 0.01 µM): 97.3% | viability, T/C (second compound 0.949 µM, first compound 0.0316 µM): 75.3% | viability, T/C (second compound 0.949 µM, first compound 0.1 µM): 50.9% | viability, T/C (second compound 0.949 µM, first compound 0.316 µM): 36.1% | viability, T/C (second compound 0.949 µM, first compound 1 µM): 30.1% | viability, T/C (second compound 3 µM, first compound 0.00316 µM): 87.5% | viability, T/C (second compound 3 µM, first compound 0.01 µM): 85.4% | viability, T/C (second compound 3 µM, first compound 0.0316 µM): 78.2% | viability, T/C (second compound 3 µM, first compound 0.1 µM): 52.3% | viability, T/C (second compound 3 µM, first compound 0.316 µM): 40.1% | viability, T/C (second compound 3 µM, first compound 1 µM): 38.7%
